# Where “and” joins values, the source holds several entries; their conditions need not be identical. Identical values can stand only once. Toxic doses and inconclusive results are not listed.
# Test system: P388 leukemia ip, CD2F1 mice, survival T/C
# Assay: NCI In Vivo Anticancer Drug Screen. Data for tumor model P388 Leukemia (intraperitoneal) in CD2F1 (CDF1) mice
# Details: endpoint: median survival time, higher = longer survival
# Method in brief: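 Mice carrying the transplanted tumor received test compound or vehicle. Survival was recorded in each group, and the value is the treated-group measurement divided by that of the vehicle-treated control group.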
# [1] = dose: 50.0 mg/kg/injection, schedule: Q01DX005 (ip), vehicle: saline with Tween-80
# [2] = dose: 100.0 mg/kg/injection, schedule: Q01DX005 (ip), vehicle: saline with Tween-80
# [3] = dose: 200.0 mg/kg/injection, schedule: Q01DX005 (ip), vehicle: saline with Tween-80
# [4] = dose: 50.0 mg/kg/injection, schedule: Q01DX009 (ip), vehicle: saline
# [5] = dose: 100.0 mg/kg/injection, schedule: Q01DX009 (ip), vehicle: saline
# [6] = dose: 50.0 mg/kg/injection, schedule: Q01DX009 (ip), vehicle: saline with Tween-80
# [7] = dose: 100.0 mg/kg/injection, schedule: Q04DX003 (ip), vehicle: saline with Tween-80
# [8] = dose: 200.0 mg/kg/injection, schedule: Q04DX003 (ip), vehicle: saline with Tween-80
# [9] = dose: 60.0 mg/kg/injection, schedule: Q01DX005 (ip), vehicle: saline with Tween-80
# [10] = dose: 120.0 mg/kg/injection, schedule: Q01DX005 (ip), vehicle: saline with Tween-80
# [11] = dose: 240.0 mg/kg/injection, schedule: Q01DX005 (ip), vehicle: saline with Tween-80
compound,measurement,setting,value
CN(C)c1ccc(-c2nn(C)c3nc(=O)n(C)c(=O)c-3[n+]2[O-])cc1,T/C,"dose: 1.56 mg/kg/injection, schedule: Q01DX001 (ip), vehicle: saline",101 % of control
same,T/C,"dose: 3.12 mg/kg/injection, schedule: Q01DX001 (ip), vehicle: saline",103 % of control
same,T/C,"dose: 6.25 mg/kg/injection, schedule: Q01DX001 (ip), vehicle: saline",100 % of control and 103 % of control
CCCN(CCC)c1cc(=O)nc2ccccn12,T/C,"dose: 60.0 mg/kg/injection, schedule: Q01DX005 (ip), vehicle: saline",100 % of control
same,T/C,"dose: 120.0 mg/kg/injection, schedule: Q01DX005 (ip), vehicle: saline",106 % of control
same,T/C,"dose: 240.0 mg/kg/injection, schedule: Q01DX005 (ip), vehicle: saline",106 % of control
O=NN(CCCl)C(=O)OCCCSSCCCOC(=O)N(CCCl)N=O,T/C,"dose: 50.0 mg/kg/injection, schedule: Q01DX009 (ip), vehicle: water",120 % of control
CCCCCCCSc1ncnc2c1ncn2C(=O)Sc1ccccc1,T/C,[1],104 % of control
same,T/C,[2],99 % of control
same,T/C,[3],107 % of control
CNC(=O)N(Cl)c1ccc(Cl)cc1,T/C,[4],98 % of control
same,T/C,[5],96 % of control
same,T/C,"dose: 200.0 mg/kg/injection, schedule: Q01DX009 (ip), vehicle: saline",97 % of control
Nc1cccc2cccnc12 (tested in a mixture with another compound),T/C,"dose: 6.25 mg/kg/injection, schedule: Q01DX009 (ip), vehicle: saline with Tween-80",97 % of control
same,T/C,"dose: 12.5 mg/kg/injection, schedule: Q01DX009 (ip), vehicle: saline with Tween-80",103 % of control
same,T/C,"dose: 25.0 mg/kg/injection, schedule: Q01DX009 (ip), vehicle: saline with Tween-80",106 % of control
same,T/C,[6],104 % of control
[O-][n+]1nc(Cl)nc2ccccc21,T/C,"dose: 10.0 mg/kg/injection, schedule: Q01DX009 (ip), vehicle: Klucel (hydroxypropylcellulose) (HPC)",105 % of control
same,T/C,"dose: 20.0 mg/kg/injection, schedule: Q01DX009 (ip), vehicle: Klucel (hydroxypropylcellulose) (HPC)",107 % of control
CC(=O)N/C(=C/c1ccccc1)C(=O)N/C(=C/c1ccccc1)C(=O)O,T/C,"dose: 50.0 mg/kg/injection, schedule: Q01DX005 (ip), vehicle: Klucel (hydroxypropylcellulose) (HPC)",101 % of control
same,T/C,"dose: 100.0 mg/kg/injection, schedule: Q01DX005 (ip), vehicle: Klucel (hydroxypropylcellulose) (HPC)",99 % of control
same,T/C,"dose: 200.0 mg/kg/injection, schedule: Q01DX005 (ip), vehicle: Klucel (hydroxypropylcellulose) (HPC)",91 % of control
O=c1[nH]cc(Cn2cccc3c(=O)ncnc2-3)c(=O)[nH]1,T/C,"dose: 100.0 mg/kg/injection, schedule: Q01DX001 (ip), vehicle: suspension in saline",93 % of control
same,T/C,"dose: 200.0 mg/kg/injection, schedule: Q01DX001 (ip), vehicle: suspension in saline",102 % of control
C=CC1(C)OC(=NC(C)(C)CO)c2cc(C)c(OC)cc21 (stereo not drawn),T/C,[1],98 % of control
same,T/C,[2],97 % of control
CC(C)CNC1=CC(=O)c2ccccc2C1=O,T/C,"dose: 50.0 mg/kg/injection, schedule: Q04DX003 (ip), vehicle: saline with Tween-80",106 % of control
same,T/C,[7],108 % of control
same,T/C,[8],92 % of control
O=NN(CCF)C(=O)NCCF,T/C,"dose: 0.11 mg/kg/injection, schedule: Q01DX009 (ip), vehicle: saline",109 % of control
same,T/C,"dose: 0.16 mg/kg/injection, schedule: Q01DX009 (ip), vehicle: saline",109 % of control
same,T/C,"dose: 0.25 mg/kg/injection, schedule: Q01DX009 (ip), vehicle: saline",122 % of control
same,T/C,"dose: 2.5 mg/kg/injection, schedule: Q01DX009 (ip), vehicle: saline",236 % of control
CC(C)(C)C(C(=O)O)C(=O)O,T/C,"dose: 12.5 mg/kg/injection, schedule: Q01DX009 (ip), vehicle: saline",101 % of control
same,T/C,"dose: 25.0 mg/kg/injection, schedule: Q01DX009 (ip), vehicle: saline",99 % of control
same,T/C,[4],96 % of control
same,T/C,[5],99 % of control
CCCCCCCCCCCCCCCC(=O)NCC(=O)NC1CC(OC2CC(O)(C(C)=O)Cc3c(O)c4c(c(O)c32)C(=O)c2c(OC)cccc2C4=O)OC(C)C1O (stereo not drawn),T/C,"dose: 0.75 mg/kg/injection, schedule: Q01DX009 (ip), vehicle: other",100 % of control
same,T/C,"dose: 1.5 mg/kg/injection, schedule: Q01DX009 (ip), vehicle: other",103 % of control
same,T/C,"dose: 3.0 mg/kg/injection, schedule: Q01DX009 (ip), vehicle: other",118 % of control
Cc1ccc2nc(/N=C/c3ccc(N(C)C)cc3)sc2c1,T/C,"dose: 100.0 mg/kg/injection, schedule: Q04DX003 (ip), vehicle: saline",109 % of control
same,T/C,"dose: 200.0 mg/kg/injection, schedule: Q04DX003 (ip), vehicle: saline",107 % of control
same,T/C,"dose: 400.0 mg/kg/injection, schedule: Q04DX003 (ip), vehicle: saline",101 % of control
COc1ccc(C2Cc3cc(OC)c(OC)cc3C(c3ccc(OC)c(OC)c3)N2)cc1OC (stereo not drawn),T/C,[9],97 % of control
same,T/C,[10],88 % of control
same,T/C,[11],89 % of control
COC(=O)CSc1nnc(CSc2ccc(Cl)cc2)n1-c1ccccc1,T/C,[9],93 % of control
same,T/C,[10],92 % of control
same,T/C,[11],96 % of control
C=CC(=O)NCNC(=O)CCBr,T/C,"dose: 25.0 mg/kg/injection, schedule: Q04DX003 (ip), vehicle: saline with Tween-80",109 % of control
same,T/C,[6],186 % of control
same,T/C,[7],150 % of control
same,T/C,[8],159 % of control and 190 % of control
same,T/C,"dose: 300.0 mg/kg/injection, schedule: Q04DX003 (ip), vehicle: saline with Tween-80",172 % of control
O=C1CC2(CC=CCC23OCCO3)CC(CI)O1 (stereo not drawn),T/C,"dose: 2.5 mg/kg/injection, schedule: Q01DX005 (ip), vehicle: acid diluted with saline",106 % of control
same,T/C,"dose: 5.0 mg/kg/injection, schedule: Q01DX005 (ip), vehicle: Klucel (hydroxypropylcellulose) (HPC)",100 % of control
same,T/C,"dose: 5.0 mg/kg/injection, schedule: Q01DX005 (ip), vehicle: acid diluted with saline",111 % of control
same,T/C,"dose: 10.0 mg/kg/injection, schedule: Q01DX005 (ip), vehicle: Klucel (hydroxypropylcellulose) (HPC)",100 % of control
same,T/C,"dose: 10.0 mg/kg/injection, schedule: Q01DX005 (ip), vehicle: acid diluted with saline",93 % of control
same,T/C,"dose: 20.0 mg/kg/injection, schedule: Q01DX005 (ip), vehicle: Klucel (hydroxypropylcellulose) (HPC)",98 % of control
same,T/C,"dose: 20.0 mg/kg/injection, schedule: Q01DX005 (ip), vehicle: acid diluted with saline",100 % of control
same,T/C,"dose: 40.0 mg/kg/injection, schedule: Q01DX005 (ip), vehicle: Klucel (hydroxypropylcellulose) (HPC)",103 % of control
CCC1(c2ccccc2)C(=O)NC(=O)N(CN2CCOCC2)C1=O (stereo not drawn),T/C,"dose: 60.0 mg/kg/injection, schedule: Q01DX005 (ip), vehicle: Klucel (hydroxypropylcellulose) (HPC)",100 % of control
same,T/C,"dose: 120.0 mg/kg/injection, schedule: Q01DX005 (ip), vehicle: Klucel (hydroxypropylcellulose) (HPC)",100 % of control
same,T/C,"dose: 240.0 mg/kg/injection, schedule: Q01DX005 (ip), vehicle: Klucel (hydroxypropylcellulose) (HPC)",98 % of control
CCCN(CCNc1cc(OC)cc2cccnc12)C(C)CC (stereo not drawn),T/C,"dose: 50.0 mg/kg/injection, schedule: Q01DX005 (ip), vehicle: saline",107 % of control
same,T/C,"dose: 100.0 mg/kg/injection, schedule: Q01DX005 (ip), vehicle: saline",92 % of control
N#CCCN(CCC#N)Cc1c(O)c(O)c(CN(CCC#N)CCC#N)c2ccccc12,T/C,[1],102 % of control and 105 % of control
same,T/C,[2],115 % of control and 118 % of control
same,T/C,[3],122 % of control and 124 % of control
COc1ccc(S(=O)(=O)N/N=C/c2cc([N+](=O)[O-])cc(I)c2O)cc1,T/C,[1],101 % of control
same,T/C,[2],100 % of control
same,T/C,[3],117 % of control
